Data reported in PubChem BioAssay (NCI).
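1) Cells in 96-well plates. 2) Compound, 48 h, 5 concentrations. 3) Linear interpolation between surrounding doses. 4) Unreached endpoint = highest concentration. The concentration for full growth arrest is given as TGI.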

Experiments:
Assay in all cases: DTP human tumour cell line panel, 48 h
A498 renal = system: A498 renal
A549 NSCLC = system: A549 NSCLC
ACHN renal = system: ACHN renal
CAKI-1 renal = system: CAKI-1 renal
CCRF-CEM leukemia = system: CCRF-CEM leukemia
COLO 205 colon = system: COLO 205 colon
DU-145 prostate = system: DU-145 prostate
EKVX NSCLC = system: EKVX NSCLC
HCC-2998 colon = system: HCC-2998 colon
HCT-116 colon = system: HCT-116 colon
HCT-15 colon = system: HCT-15 colon
HL-60(TB) leukemia = system: HL-60(TB) leukemia
HOP-62 NSCLC = system: HOP-62 NSCLC
HS 578T breast = system: HS 578T breast
HT29 colon = system: HT29 colon
IGROV1 ovarian = system: IGROV1 ovarian
K-562 leukemia = system: K-562 leukemia
KM12 colon = system: KM12 colon
LOX IMVI melanoma = system: LOX IMVI melanoma
M14 melanoma = system: M14 melanoma
MALME-3M melanoma = system: MALME-3M melanoma
MCF7 breast = system: MCF7 breast
MDA-MB-231 breast = system: MDA-MB-231 breast
MDA-MB-435 = system: MDA-MB-435
MDA-N = system: MDA-N
MOLT-4 leukemia = system: MOLT-4 leukemia
NCI-H226 lung = system: NCI-H226 lung
NCI-H23 lung = system: NCI-H23 lung
NCI-H460 lung = system: NCI-H460 lung
NCI-H522 lung = system: NCI-H522 lung
NCI/ADR-RES ovarian = system: NCI/ADR-RES ovarian
OVCAR-3 ovarian = system: OVCAR-3 ovarian
OVCAR-4 ovarian = system: OVCAR-4 ovarian
OVCAR-5 ovarian = system: OVCAR-5 ovarian
OVCAR-8 ovarian = system: OVCAR-8 ovarian
PC-3 prostate = system: PC-3 prostate
RPMI-8226 leukemia = system: RPMI-8226 leukemia
RXF 393 renal = system: RXF 393 renal
SF-268 CNS = system: SF-268 CNS
SF-295 CNS = system: SF-295 CNS
SF-539 CNS = system: SF-539 CNS
SK-MEL-2 melanoma = system: SK-MEL-2 melanoma
SK-MEL-28 melanoma = system: SK-MEL-28 melanoma
SK-MEL-5 melanoma = system: SK-MEL-5 melanoma
SK-OV-3 ovarian = system: SK-OV-3 ovarian
SN12C renal = system: SN12C renal
SNB-19 CNS = system: SNB-19 CNS
SNB-75 CNS = system: SNB-75 CNS
SR leukemia = system: SR leukemia
SW-620 colon = system: SW-620 colon
T-47D breast = system: T-47D breast
TK-10 renal = system: TK-10 renal
U251 CNS = system: U251 CNS
UACC-62 melanoma = system: UACC-62 melanoma
UO-31 renal = system: UO-31 renal
786-0 renal = system: 786-0 renal
HOP-92 NSCLC = system: HOP-92 NSCLC
UACC-257 melanoma = system: UACC-257 melanoma

Q: How did the TGI (A498 renal) turn out when `O=c1cc(-c2ccccc2)[nH]c2nccn12` was run?
A: Its TGI is greater than 10 µM.

Q: And the TGI (A549 NSCLC)?
A: Its TGI is greater than 10 µM.

Q: What about the TGI (ACHN renal) of the same molecule?
A: The TGI was greater than 10 µM.

Q: And the TGI (CAKI-1 renal)?
A: Its TGI is greater than 10 µM.

Q: And the TGI (CCRF-CEM leukemia)?
A: The TGI was greater than 10 µM.

Q: And the TGI (COLO 205 colon)?
A: The TGI was greater than 10 µM.

Q: What about the TGI (DU-145 prostate) of the same molecule?
A: The TGI was greater than 10 µM.

Q: What about the TGI (EKVX NSCLC) of the same molecule?
A: Its TGI is greater than 10 µM.

Q: What about the TGI (HCC-2998 colon) of the same molecule?
A: Its TGI is greater than 10 µM.

Q: What about the TGI (HCT-116 colon) of the same molecule?
A: Its TGI is greater than 10 µM.

Q: What about the TGI (HCT-15 colon) of the same molecule?
A: Its TGI is greater than 10 µM.

Q: And the TGI (HL-60(TB) leukemia)?
A: The TGI was greater than 10 µM.

Q: What about the TGI (HOP-62 NSCLC) of the same molecule?
A: Its TGI is greater than 10 µM.

Q: And the TGI (HS 578T breast)?
A: Its TGI is greater than 10 µM.

Q: And the TGI (HT29 colon)?
A: The TGI was greater than 10 µM.

Q: And the TGI (IGROV1 ovarian)?
A: Its TGI is greater than 10 µM.

Q: What about the TGI (K-562 leukemia) of the same molecule?
A: The TGI was greater than 10 µM.

Q: What about the TGI (KM12 colon) of the same molecule?
A: The TGI was greater than 10 µM.

Q: And the TGI (LOX IMVI melanoma)?
A: Its TGI is greater than 10 µM.

Q: And the TGI (M14 melanoma)?
A: The TGI was greater than 10 µM.

Q: What about the TGI (MALME-3M melanoma) of the same molecule?
A: Its TGI is greater than 10 µM.

Q: And the TGI (MCF7 breast)?
A: The TGI was greater than 10 µM.

Q: And the TGI (MDA-MB-231 breast)?
A: Its TGI is greater than 10 µM.

Q: And the TGI (MDA-MB-435)?
A: Its TGI is greater than 10 µM.

Q: And the TGI (MDA-N)?
A: The TGI was greater than 10 µM.

Q: And the TGI (MOLT-4 leukemia)?
A: The TGI was greater than 10 µM.

Q: What about the TGI (NCI-H226 lung) of the same molecule?
A: The TGI was greater than 10 µM.

Q: And the TGI (NCI-H23 lung)?
A: The TGI was greater than 10 µM.

Q: What about the TGI (NCI-H460 lung) of the same molecule?
A: The TGI was greater than 10 µM.

Q: What about the TGI (NCI-H522 lung) of the same molecule?
A: The TGI was greater than 10 µM.

Q: And the TGI (NCI/ADR-RES ovarian)?
A: Its TGI is greater than 10 µM.

Q: What about the TGI (OVCAR-3 ovarian) of the same molecule?
A: Its TGI is greater than 10 µM.

Q: What about the TGI (OVCAR-4 ovarian) of the same molecule?
A: Its TGI is greater than 10 µM.

Q: And the TGI (OVCAR-5 ovarian)?
A: Its TGI is greater than 10 µM.

Q: And the TGI (OVCAR-8 ovarian)?
A: Its TGI is greater than 10 µM.

Q: And the TGI (PC-3 prostate)?
A: Its TGI is greater than 10 µM.

Q: And the TGI (RPMI-8226 leukemia)?
A: The TGI was greater than 10 µM.

Q: What about the TGI (RXF 393 renal) of the same molecule?
A: The TGI was greater than 10 µM.

Q: What about the TGI (SF-268 CNS) of the same molecule?
A: Its TGI is greater than 10 µM.

Q: What about the TGI (SF-295 CNS) of the same molecule?
A: Its TGI is greater than 10 µM.

Q: What about the TGI (SF-539 CNS) of the same molecule?
A: Its TGI is greater than 10 µM.

Q: And the TGI (SK-MEL-2 melanoma)?
A: The TGI was greater than 10 µM.

Q: And the TGI (SK-MEL-28 melanoma)?
A: The TGI was greater than 10 µM.

Q: And the TGI (SK-MEL-5 melanoma)?
A: The TGI was greater than 10 µM.

Q: And the TGI (SK-OV-3 ovarian)?
A: The TGI was greater than 10 µM.

Q: What about the TGI (SN12C renal) of the same molecule?
A: Its TGI is greater than 10 µM.

Q: What about the TGI (SNB-19 CNS) of the same molecule?
A: Its TGI is greater than 10 µM.

Q: What about the TGI (SNB-75 CNS) of the same molecule?
A: The TGI was greater than 10 µM.

Q: What about the TGI (SR leukemia) of the same molecule?
A: Its TGI is greater than 10 µM.

Q: What about the TGI (SW-620 colon) of the same molecule?
A: The TGI was greater than 10 µM.

Q: What about the TGI (T-47D breast) of the same molecule?
A: Its TGI is greater than 10 µM.

Q: And the TGI (TK-10 renal)?
A: Its TGI is greater than 10 µM.

Q: And the TGI (U251 CNS)?
A: Its TGI is greater than 10 µM.

Q: What about the TGI (UACC-62 melanoma) of the same molecule?
A: Its TGI is greater than 10 µM.

Q: What about the TGI (UO-31 renal) of the same molecule?
A: Its TGI is greater than 10 µM.

Q: Which results are given for `COC(=O)CCC(NC(=O)OC(C)(C)C)C(=O)NC(Cc1ccc(NC(=O)CCCC(C)=O)cc1)C(=O)NC(CCC(=O)OC)C(=O)OC` (stereo unspecified)?
A: TGI (786-0 renal): > 100 µM; TGI (A498 renal): > 100 µM; TGI (A549 NSCLC): > 100 µM; TGI (ACHN renal): > 100 µM; TGI (CAKI-1 renal): > 100 µM; TGI (CCRF-CEM leukemia): > 100 µM; TGI (COLO 205 colon): > 100 µM; TGI (DU-145 prostate): > 100 µM; TGI (EKVX NSCLC): > 100 µM; TGI (HCC-2998 colon): > 100 µM; TGI (HCT-116 colon): > 100 µM; TGI (HCT-15 colon): > 100 µM; TGI (HOP-62 NSCLC): > 100 µM; TGI (HOP-92 NSCLC): > 100 µM; TGI (HS 578T breast): > 100 µM; TGI (HT29 colon): > 100 µM; TGI (IGROV1 ovarian): > 100 µM; TGI (K-562 leukemia): > 100 µM; TGI (KM12 colon): > 100 µM; TGI (LOX IMVI melanoma): > 100 µM; TGI (M14 melanoma): > 100 µM; TGI (MALME-3M melanoma): > 100 µM; TGI (MCF7 breast): > 100 µM; TGI (MDA-MB-231 breast): > 100 µM; TGI (MDA-MB-435): > 100 µM; TGI (MDA-N): > 100 µM; TGI (MOLT-4 leukemia): > 100 µM; TGI (NCI-H226 lung): > 100 µM; TGI (NCI-H23 lung): > 100 µM; TGI (NCI-H460 lung): > 100 µM; TGI (NCI-H522 lung): > 100 µM; TGI (NCI/ADR-RES ovarian): > 100 µM; TGI (OVCAR-3 ovarian): > 100 µM; TGI (OVCAR-4 ovarian): > 100 µM; TGI (OVCAR-5 ovarian): > 100 µM; TGI (OVCAR-8 ovarian): > 100 µM; TGI (PC-3 prostate): > 100 µM; TGI (RPMI-8226 leukemia): > 100 µM; TGI (RXF 393 renal): > 100 µM; TGI (SF-268 CNS): > 100 µM; TGI (SF-295 CNS): > 100 µM; TGI (SF-539 CNS): > 100 µM; TGI (SK-MEL-2 melanoma): > 100 µM; TGI (SK-MEL-28 melanoma): > 100 µM; TGI (SK-MEL-5 melanoma): > 100 µM; TGI (SK-OV-3 ovarian): > 100 µM; TGI (SN12C renal): > 100 µM; TGI (SNB-19 CNS): > 100 µM; TGI (SNB-75 CNS): > 100 µM; TGI (SR leukemia): > 100 µM; TGI (SW-620 colon): > 100 µM; TGI (T-47D breast): > 100 µM; TGI (TK-10 renal): > 100 µM; TGI (UACC-257 melanoma): > 100 µM; TGI (UACC-62 melanoma): > 100 µM; TGI (UO-31 renal): > 100 µM
